Test results reported in patent US20080214646A1 (priority 2005, published 2008).
Several values for one entry are separate records, joined by “and”; a condition that tells them apart may be missing. Equal entries are not always repeated. Marks after values point to notes of the source that are not given here.

What was measured:
[1] = system: carrageenan-induced rat paw edema; test: Carrageenan-induced rat paw edema anti-inflammatory assay; type: in vivo; details: for ED50: 3 h after oral administration, rat, read-out: AI activity ID50
[2] = Nitric oxide release in phosphate buffer (Griess reaction); type: physicochemical; details: PBS pH 7.4, 37° C., 1.5 h; relative to theoretical maximum 2 mol NO/mol
Procedure: (§1) Nitric Oxide Release Assay: In vitro nitric oxide release, upon incubation with phosphate buffer, pig liver esterase, or guinea pig serum, was determined by quantification of nitrite produced by the reaction of nitric oxide with oxygen and water using the Griess reaction.

ovine COX-1 = biological target: T1, ovine COX-1 (Ovis aries, UniProt P05979); test: In vitro ovine COX-1 enzyme inhibition (EIA kit); type: biochemical; details: mean of two determinations
T1 construct: purchased Cayman Chemical 560101
T1 sequence (P05979 25-600): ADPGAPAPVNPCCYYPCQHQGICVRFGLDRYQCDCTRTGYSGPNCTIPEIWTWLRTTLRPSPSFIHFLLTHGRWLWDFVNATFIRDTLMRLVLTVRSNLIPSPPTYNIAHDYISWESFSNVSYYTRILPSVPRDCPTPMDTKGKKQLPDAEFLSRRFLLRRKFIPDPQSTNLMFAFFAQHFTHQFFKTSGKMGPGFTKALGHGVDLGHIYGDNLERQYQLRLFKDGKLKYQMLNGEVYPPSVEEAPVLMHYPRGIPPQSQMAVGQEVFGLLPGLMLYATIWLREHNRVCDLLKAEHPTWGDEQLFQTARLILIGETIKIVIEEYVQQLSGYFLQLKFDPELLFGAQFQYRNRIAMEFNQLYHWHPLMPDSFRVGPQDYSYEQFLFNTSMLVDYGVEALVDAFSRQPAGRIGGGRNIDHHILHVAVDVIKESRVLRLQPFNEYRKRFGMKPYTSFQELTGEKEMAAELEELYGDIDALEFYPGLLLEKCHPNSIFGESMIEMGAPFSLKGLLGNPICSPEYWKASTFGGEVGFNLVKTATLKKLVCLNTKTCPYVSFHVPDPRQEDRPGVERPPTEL

ovine COX-2 = biological target: T2, ovine COX-2 (Ovis aries, UniProt P79208); test: In vitro ovine COX-2 enzyme inhibition (EIA kit); type: biochemical; details: for IC50: ovine COX-2, mean of two determinations
T2 construct: purchased Cayman Chemical 560101
T2 sequence (P79208 17-603): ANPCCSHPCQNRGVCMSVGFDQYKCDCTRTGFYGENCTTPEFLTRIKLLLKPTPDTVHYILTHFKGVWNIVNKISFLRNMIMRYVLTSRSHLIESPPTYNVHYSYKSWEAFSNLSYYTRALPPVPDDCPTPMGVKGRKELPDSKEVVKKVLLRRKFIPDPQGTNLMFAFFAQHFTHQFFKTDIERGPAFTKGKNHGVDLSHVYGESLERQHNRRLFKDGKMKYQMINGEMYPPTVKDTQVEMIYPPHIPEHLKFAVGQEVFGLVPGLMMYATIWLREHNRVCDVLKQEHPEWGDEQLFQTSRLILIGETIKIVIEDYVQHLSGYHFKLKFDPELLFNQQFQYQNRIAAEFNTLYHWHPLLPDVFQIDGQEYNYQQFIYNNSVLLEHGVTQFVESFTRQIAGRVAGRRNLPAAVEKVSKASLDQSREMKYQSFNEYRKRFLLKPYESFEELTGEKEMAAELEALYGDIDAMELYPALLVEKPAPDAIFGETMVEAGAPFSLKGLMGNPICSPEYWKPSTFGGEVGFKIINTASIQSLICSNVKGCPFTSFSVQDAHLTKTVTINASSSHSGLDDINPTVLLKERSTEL

pig liver esterase = details: 1.5 h, pH 7.4
Procedure: as §1

gastric ulcers = test: Acute ulcerogenesis assay (gastric ulcer index); type: in vivo, rats; details: oral, 6 h, rat
Procedure: All drugs were suspended and administered in 1.7 mL of a 1% methylcellulose solution. Control rats received oral administration of vehicle (1.7 mL of 1.0% methylcellulose solution). Food, but not water, was removed 24 h before administration of test compounds. Six hours after oral administration of the drug, rats were euthanized in a CO2 chamber and their stomachs were removed, cut out along the greater curvature of the stomach, gently rinsed with water and placed on ice. The number and the length of ulcers were determined using a magnifier lens. […] The average overall length (in mm) of individual ulcers in each tissue was designated as the “ulcer index”. Each experimental group consisted of four rats.

[3] = equivalent amount to 250 mg of aspirin/kg
[4] = equivalent amount to 250 mg of ibuprofen/kg

Molecule `CC(C)Cc1ccc(C(C)C(=O)O)cc1` (racemic) [Ibuprofen, ibuprofen, reference compound] has an ED50 [1] of 67.4 mg/kg.

For `[Na+].[O-]N=[N+]([O-])N1CCCC1` [O^2-sodium 1-(pyrrolidin-1-yl)diazen-1-ium-1,2-diolate, reference compound], the “% of Nitric oxide released, PBS (pH 7.4)” value [2] was 94.0 ± 0.1%.

With `CC(=O)Oc1ccccc1C(=O)OCON=[N+]([O-])N(C)C` [Compound 12, O^2(Acetylsalicyloyloxymethyl)-1-(N,N-dimethylamino)diazen-1-ium-1,2-diolate] the IC50 (ovine COX-1) was over 100 µM, the IC50 (ovine COX-2) was over 100 µM and the ED50 [1] was 151 mg/kg. For the same molecule, the “% of Nitric oxide released, PBS (pH 7.4)” value [2] was 15.4 ± 0.1%, the “% of Nitric oxide released, PLE” value (pig liver esterase) was 19.1 ± 0.1% and the Ulcer index (gastric ulcers; [3]) was 0 mm and 0^d mm.

With `CC(=O)Oc1ccccc1C(=O)OCON=[N+]([O-])N1CCCC1` [Compound 11, O^2(Acetylsalicyloyloxymethyl)-1-(pyrrolidin-1-yl)diazen-1-ium-1,2-diolate] the IC50 (ovine COX-1) was over 100 µM, the IC50 (ovine COX-2) was over 100 µM and the ED50 [1] was 182 mg/kg. The “% of Nitric oxide released, PBS (pH 7.4)” value [2] was 14.8 ± 0.1%, the “% of Nitric oxide released, PLE” value (pig liver esterase) was 18.5 ± 0.1% and the Ulcer index (gastric ulcers; [3]) was 0 mm and 0^d mm.

With `CC(C)Cc1ccc(C(C)C(=O)OCON=[N+]([O-])N2CCCC2)cc1` (stereo not drawn) [Compound 13, O^2-[2-(4-(Isobutyl)phenyl)propanoyloxymethyl]-1-(pyrrolidin-1-yl)diazen-1-ium-1,2-diolate] the IC50 (ovine COX-1) was over 100 µM, the IC50 (ovine COX-2) was over 100 µM and the ED50 [1] was 66.8 mg/kg. For the same molecule, the “% of Nitric oxide released, PBS (pH 7.4)” value [2] was 14.9 ± 0.1%, the “% of Nitric oxide released, PLE” value (pig liver esterase) was 16.3 ± 0.1% and the Ulcer index (gastric ulcers; [4]) was 0 mm and 0^e mm.

Molecule `COc1ccc2c(c1)c(CC(=O)O)c(C)n2C(=O)c1ccc(Cl)cc1` [Indomethacin, indomethacin, reference compound] has an ED50 [1] of 4.2 mg/kg.

Work on `COc1ccc2c(c1)c(CC(=O)OCON=[N+]([O-])N1CCCC1)c(C)n2C(=O)c1ccc(Cl)cc1` [Compound 15, O^2-[2-(1-(4-Chlorobenzoyl)-5-methoxy-2-methyl-1H-indol-3-yl)acetoxymethyl]-1-(pyrrolidin-1-yl)diazen-1-ium-1,2-diolate] yielded an IC50 (ovine COX-1) of over 100 µM, an IC50 (ovine COX-2) of over 100 µM and an ED50 [1] of 10.7 mg/kg. The “fold less potent relative to the parent drug (ID50)” value ([1]; carrageenan-induced rat paw edema, oral) was “about 2.5 fold”, the “% of Nitric oxide released, PBS (pH 7.4)” value [2] was 15.1 ± 0.1% and the “% of Nitric oxide released, PLE” value (pig liver esterase) was 16.3 ± 0.1%. For the same molecule, the Ulcer index (gastric ulcers; equivalent amount to 30 mg of indomethacin/kg) was 0.7 ± 0.11^f mm.

With `CC(C)Cc1ccc(C(C)C(=O)OCON=[N+]([O-])N(C)C)cc1` (stereo not drawn) [Compound 14, O^2-[2-(4-(Isobutyl)phenyl)propanoyloxymethyl]-1-(N,N-dimethylamino)diazen-1-ium-1,2-diolate] the IC50 (ovine COX-1) was over 100 µM, the IC50 (ovine COX-2) was over 100 µM and the ED50 [1] was 62.3 mg/kg. For the same molecule, the “% of Nitric oxide released, PBS (pH 7.4)” value [2] was 16.1 ± 0.1%, the “% of Nitric oxide released, PLE” value (pig liver esterase) was 17.3 ± 0.1% and the Ulcer index (gastric ulcers; [4]) was 0 mm and 0^e mm.

In the case of `COc1ccc2c(c1)c(CC(=O)OCON=[N+]([O-])N(C)C)c(C)n2C(=O)c1ccc(Cl)cc1` [Compound 16, O^2-[2-(1-(4-Chlorobenzoyl)-5-methoxy-2-methyl-1H-indol-3-yl)acetoxymethyl]-1-(dimethylamino)diazen-1-ium-1,2-diolate], the IC50 (ovine COX-1) is reported as over 100 µM, the IC50 (ovine COX-2) is reported as over 100 µM and the ED50 [1] is reported as 5.9 mg/kg. For the same molecule, the “% of Nitric oxide released, PBS (pH 7.4)” value [2] was 14.3 ± 0.1% and the “% of Nitric oxide released, PLE” value (pig liver esterase) was 16.9 ± 0.1%.

For `CC(=O)Oc1ccccc1C(=O)O` [Aspirin, Acetyl salicylic acid, reference compound], the “COX-2 S.I. (COX-1 IC50/COX-2 IC50)” value (ovine COX-2; selectivity index) was 0.14 and the ED50 [1] was 129 mg/kg.

With `CN(C)[N+]([O-])=N[O-].[Na+]` [Compound 7, O^2-Sodium 1-(N,N-dimethylamino)diazen-1-ium-1,2-diolate, reference compound] the “% of Nitric oxide released, PBS (pH 7.4)” value [2] was 95.2 ± 0.1%.
